Each compound was assayed against T1, hFXR (Homo sapiens, UniProt Q96RI1) (assay: In Vitro FXR Assay (TK): hFXR/hRXR TK-ECRE-luc reporter in transfected CV-1 cells). Details: CV-1 cells transfected with hFXR, hRXR, 18 hrs incubation, luminescence, maximum efficacy <25% of Fexarmine control also classified as ‘+’.
T1 construct: expressed in transfected cells; host or cells: CV-1 cells
T1 sequence (Q96RI1 1-486): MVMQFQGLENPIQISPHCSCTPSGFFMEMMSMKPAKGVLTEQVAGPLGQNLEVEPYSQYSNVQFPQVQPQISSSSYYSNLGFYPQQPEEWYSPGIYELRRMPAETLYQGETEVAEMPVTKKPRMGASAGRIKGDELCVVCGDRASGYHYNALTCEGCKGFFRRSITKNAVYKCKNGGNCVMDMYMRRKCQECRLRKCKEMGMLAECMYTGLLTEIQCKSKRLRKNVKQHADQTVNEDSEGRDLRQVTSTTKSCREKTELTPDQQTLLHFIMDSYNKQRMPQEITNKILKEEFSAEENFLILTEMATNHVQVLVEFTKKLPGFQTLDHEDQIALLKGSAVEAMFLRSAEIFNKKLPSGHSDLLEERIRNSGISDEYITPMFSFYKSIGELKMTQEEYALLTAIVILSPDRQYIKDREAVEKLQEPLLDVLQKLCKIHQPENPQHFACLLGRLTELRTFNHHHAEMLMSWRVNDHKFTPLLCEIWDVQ
T1 sequence (P19793 1-462 partner): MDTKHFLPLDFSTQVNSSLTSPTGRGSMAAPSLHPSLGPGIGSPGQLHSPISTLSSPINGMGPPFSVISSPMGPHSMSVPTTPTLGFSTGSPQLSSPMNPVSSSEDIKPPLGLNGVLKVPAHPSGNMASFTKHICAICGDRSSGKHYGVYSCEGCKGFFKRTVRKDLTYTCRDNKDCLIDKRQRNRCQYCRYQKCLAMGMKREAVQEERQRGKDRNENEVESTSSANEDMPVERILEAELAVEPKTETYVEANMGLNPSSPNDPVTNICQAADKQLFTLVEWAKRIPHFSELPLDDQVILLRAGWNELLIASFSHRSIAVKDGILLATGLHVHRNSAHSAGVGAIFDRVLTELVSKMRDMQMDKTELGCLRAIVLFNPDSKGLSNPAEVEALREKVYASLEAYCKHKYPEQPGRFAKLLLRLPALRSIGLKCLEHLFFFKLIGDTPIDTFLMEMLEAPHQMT
Type: cell-based
Method: Example B-1: In Vitro FXR Assay (TK)
CV-1 cells were seeded at a density of 2,000,000 cells in a T175 flask with DMEM+10% charcoal double-stripped FBS and incubated at 37° C. in 5% CO2 for 18 h (O/N).
After 18 h of incubation, the medium in the T175 flask was changed with fresh DMEM+10% charcoal super-stripped serum. In a polypropylene tube, 2500 μL OptiMEM (Life Technologies, Cat #31985-062) was combined with expression plasmids for hFXR, hRXR, TK-ECRE-luc and pCMX-YFP. The tube was then briefly vortexed and incubated at room temperature for 5 minutes. Transfection reagent (X-tremeGENE HP from Roche, Cat #06 366 236 001) was added to the OptiMEM/plasmid mixture vortexed and incubated at room temperature for 20 minutes. Following incubation, the transfection reagent/DNA mixture complex was added to cells in the T175 flask and the cells were incubated at 37° C. in 5% CO2 for 18 h (0/N).
Compounds were serially diluted in DMSO and added to transfected CV-1 cells. The cells were then incubated for 18 hrs. The next day cells were lysed and examined for luminescence.

EC50 [nM]	Compound
≤ 500	COc1ncc(-c2cccc(N(C[C@H]3CC[C@H](c4ccc(OC)c(C)c4)CC3)C(=O)[C@H]3CC[C@H](O)CC3)c2)cn1 [Compound 1.02, trans-4-Hydroxy-N-((trans-4-(4-methoxy-3-methylphenyl)cyclohexyl)methyl)-N-(3-(2-methoxypyrimidin-5-yl)phenyl)cyclohexanecarboxamide]
≤ 500	COc1ccc([C@H]2CC[C@H](CN(c3cccc(C#Cc4cn[nH]n4)c3)C(=O)[C@H]3CC[C@H](O)CC3)CC2)cc1C [Compound 14.01, trans-N-(3-((2H-1,2,3-Triazol-4-yl)ethynyl)phenyl)-4-hydroxy-N-((trans-4-(4-methoxy-3-methylphenyl)cyclohexyl)methyl) cyclohexanecarboxamide]
≤ 500	COc1ncc([C@H]2CC[C@H](CN(c3cc(-c4coc(C5CC5)n4)ccn3)C(=O)[C@H]3CC[C@H](O)CC3)CC2)cc1C [Compound 10.23, trans-N-(4-(2-Cyclopropyloxazol-4-yl)pyridin-2-yl)-4-hydroxy-N-((trans-4-(6-methoxy-5-methylpyridin-3-yl)cyclohexyl)methyl) cyclohexanecarboxamide]
≤ 500	COc1ccc([C@H]2CC[C@H](CN(c3cccc(-c4cnc(N(C)C)cn4)c3)C(=O)[C@H]3CC[C@H](O)CC3)CC2)cc1C [Compound 2]
500 to 1000	COc1ccc([C@H]2CC[C@H](CN(c3cccc(-c4ncsn4)c3)C(=O)[C@H]3CC[C@H](O)CC3)CC2)cc1C [Compound 9.07, trans-N-(3-(1,2,4-Thiadiazol-3-yl)phenyl)-4-hydroxy-N-((trans-4-(4-methoxy-3-methylphenyl)cyclohexyl)methyl) cyclohexanecarboxamide]
≤ 500	COc1ccc([C@H]2CC[C@H](CN(c3cccc(-c4ccc(N(C)C)nc4)c3)C(=O)[C@H]3CC[C@H](O)CC3)CC2)nc1C [Compound 10.15, trans-N-(3-(6-(Dimethylamino)pyridine-3-yl)phenyl)-4-hydroxy-N-((trans-4-(5-methoxy-6-methylpyridin-2-yl)cyclohexyl)methyl) cyclohexanecarboxamide]
≤ 500	COc1cnc(-c2cccc(N(C[C@H]3CC[C@H](c4ccc(OC)c(C)c4)CC3)C(=O)[C@H]3CC[C@H](O)CC3)c2)nc1 [Compound 2.01, trans-4-Hydroxy-N-((trans-4-(4-methoxy-3-methylphenyl)cyclohexyl)methyl)-N-(3-(5-methoxypyrimidin-2-yl)phenyl)cyclohexanecarboxamide]
≥ 1000	COc1ccc([C@H]2CC[C@H](CN(c3cccc(-c4cncc(C(F)(F)F)c4)c3)C(=O)[C@H]3CC[C@H](O)CC3)CC2)cc1C [Compound 1.05, trans-4-Hydroxy-N-((trans-4-(4-methoxy-3-methylphenyl)cyclohexyl)methyl)-N-(3-(5-(trifluoromethyl)pyridine-3-yl)phenyl)cyclohexanecarboxamide]
≤ 500	COc1ccc([C@H]2CC[C@H](CN(c3cccc(C#Cc4ncns4)c3)C(=O)[C@H]3CC[C@H](O)CC3)CC2)cc1C [Compound 11, trans-N-(3-((1,2,4-Thiadiazol-5-yl)ethynyl)phenyl)-4-hydroxy-N-((trans-4-(4-methoxy-3-methylphenyl)cyclohexyl)methyl)cyclohexanecarboxamide]
≤ 500	COc1ccc([C@H]2CC[C@H](CN(c3cccc(-c4cnc(C5CC5)o4)c3)C(=O)[C@H]3CC[C@H](O)CC3)CC2)cc1C [Compound 9.12, trans-N-(3-(2-Cyclopropyloxazol-5-yl)phenyl)-4-hydroxy-N-((trans-4-(4-methoxy-3-methylphenyl)cyclohexyl)methyl) cyclohexanecarboxamide]
500 to 1000	COc1ccc(-c2cccc(N(C[C@H]3CC[C@H](c4ccc(OC)c(C)c4)CC3)C(=O)[C@H]3CC[C@H](O)CC3)c2)cc1C [Compound 1.08, trans-4-Hydroxy-N-(4′-methoxy-3′-methyl-[1,1′-biphenyl]-3-yl)-N-((trans-4-(4-methoxy-3-methylphenyl)cyclohexyl)methyl)cyclohexanecarboxamide]
500 to 1000	COc1ccc([C@H]2CC[C@H](CN(c3cccc(-c4nsc(C5CC5)n4)c3)C(=O)[C@H]3CC[C@H](O)CC3)CC2)cc1C [Compound 2.12, trans-N-(3-(5-Cyclopropyl-1,2,4-thiadiazol-3-yl)phenyl)-4-hydroxy-N-((trans-4-(4-methoxy-3-methylphenyl)cyclohexyl)methyl)cyclohexanecarboxamide]
500 to 1000	COc1cnc([C@H]2CC[C@H](CN(c3cccc(-c4coc(C5CC5)n4)c3)C(=O)[C@H]3CC[C@H](O)CC3)CC2)cc1C [Compound 10.16, trans-N-(3-(2-Cyclopropyloxazol-4-yl)phenyl)-4-hydroxy-N-((trans-4-(5-methoxy-4-methylpyridin-2-yl)cyclohexyl)methyl) cyclohexanecarboxamide]
≤ 500	COc1ccc([C@H]2CC[C@H](CN(c3cccc(-c4ccc(N(C)C)nc4)c3)C(=O)[C@H]3CC[C@H](O)CC3)CC2)cc1C [Compound 1, trans-N-(3-(6-(Dimethylamino)pyridine-3-yl)phenyl)-4-hydroxy-N-((trans-4-(4-methoxy-3-methylphenyl)cyclohexyl)methyl)cyclohexanecarboxamide]
≤ 500	COc1ccc([C@H]2CC[C@H](CN(c3cc(-c4coc(C5CC5)n4)ccn3)C(=O)[C@H]3CC[C@H](O)CC3)CC2)nc1C [Compound 10.09, trans-N-(4-(2-Cyclopropyloxazol-4-yl)pyridine-2-yl)-4-hydroxy-N-((trans-4-(5-methoxy-6-methylpyridin-2-yl)cyclohexyl)methyl) cyclohexanecarboxamide]
≤ 500	COc1ccc([C@H]2CC[C@H](CN(c3cccc(-c4cnc(N(C)C)nc4)c3)C(=O)[C@H]3CC[C@H](O)CC3)CC2)cc1C [Compound 1.09, trans-N-(3-(2-(Dimethylamino)pyrimidin-5-yl)phenyl)-4-hydroxy-N-((trans-4-(4-methoxy-3-methylphenyl)cyclohexyl)methyl)cyclohexanecarboxamide]
≥ 1000	COc1ccc([C@H]2CC[C@H](CN(c3cccc(-c4ncco4)c3)C(=O)[C@H]3CC[C@H](O)CC3)CC2)cc1C [Compound 3.01, trans-4-Hydroxy-N-((trans-4-(4-methoxy-3-methylphenyl)cyclohexyl)methyl)-N-(3-(oxazol-2-yl)phenyl)cyclohexanecarboxamide]
≤ 500	COc1ccc([C@H]2CC[C@H](CN(c3cccc(C#Cc4ncco4)c3)C(=O)[C@H]3CC[C@H](O)CC3)CC2)cc1C [Compound 11.01, trans-4-Hydroxy-N-((trans-4-(4-methoxy-3-methylphenyl)cyclohexyl)methyl)-N-(3-(oxazol-2-ylethynyl)phenyl)cyclohexanecarboxamide]
≥ 1000	COc1ccc([C@H]2CC[C@H](CN(c3cccc(-c4cn(C)nn4)c3)C(=O)[C@H]3CC[C@H](O)CC3)CC2)cc1C [Compound 2.05, trans-4-Hydroxy-N-((trans-4-(4-methoxy-3-methylphenyl)cyclohexyl)methyl)-N-(3-(1-methyl-1H-1,2,3-triazol-4-yl)phenyl)cyclohexanecarboxamide]
500 to 1000	COc1ccc([C@H]2CC[C@H](CN(c3cccc(-c4ccsn4)c3)C(=O)[C@H]3CC[C@H](O)CC3)CC2)cc1C [Compound 2.07, trans-4-Hydroxy-N-(3-(isothiazol-3-yl)phenyl)-N-((trans-4-(4-methoxy-3-methylphenyl)cyclohexyl)methyl)cyclohexanecarboxamide]
≥ 1000	COc1ccc([C@H]2CC[C@H](CN(c3cccc(-n4ncc(C)n4)c3)C(=O)[C@H]3CC[C@H](O)CC3)CC2)cc1C [Compound 9.10, trans-4-Hydroxy-N-((trans-4-(4-methoxy-3-methylphenyl)cyclohexyl)methyl)-N-(3-(4-methyl-2H-1,2,3-triazol-2-yl)phenyl)cyclohexanecarboxamide]
